Broadly, the IC50 is the midpoint of a concentration-inhibition curve. A high value points to a need for much substance.

Drawing on patent US7807701B2, “Dibenzylamine compounds and pharmaceutical use thereof” (Japan Tobacco Inc., priority 2002, dated 2010), this text covers IC50 for 18 molecules.

For this experiment, the target named is T1, CETP (Homo sapiens, UniProt P11597).
T1 construct: The donor lipoprotein obtained above was added to plasma of healthy subject; from tissue; host or cells: whole plasma of healthy subject
T1 sequence (P11597 18-493): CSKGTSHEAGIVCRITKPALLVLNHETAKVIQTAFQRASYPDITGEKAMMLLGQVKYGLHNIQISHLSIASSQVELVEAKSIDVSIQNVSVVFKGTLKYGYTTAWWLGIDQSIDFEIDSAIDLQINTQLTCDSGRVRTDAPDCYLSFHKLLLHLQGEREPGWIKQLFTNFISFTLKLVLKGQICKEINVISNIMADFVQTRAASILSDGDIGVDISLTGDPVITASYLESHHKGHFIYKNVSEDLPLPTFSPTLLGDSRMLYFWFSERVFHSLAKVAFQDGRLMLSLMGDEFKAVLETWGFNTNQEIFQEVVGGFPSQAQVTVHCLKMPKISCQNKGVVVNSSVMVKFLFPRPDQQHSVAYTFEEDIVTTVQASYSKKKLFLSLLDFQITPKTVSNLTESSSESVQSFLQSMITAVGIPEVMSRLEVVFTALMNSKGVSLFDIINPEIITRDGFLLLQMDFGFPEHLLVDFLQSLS
Nature of the experiment: Inhibitory effect in vitro on CETP activity in total plasma. The class given is biochemical. As to conditions: plasma of healthy subject with [3H]CE-HDL3, 37° C., 4 hr; average values. On the procedure:
Potassium bromide (KBr) was added to plasma (40 mL) of healthy subject and the mixture was adjusted to have a specific density d=1.125 g/mL. The mixture was subjected to density gradient centrifugation (227,000×g, 4° C., 17 hr) and a fraction showing a specific density of d>1.125 g/mL (HDL3 fraction) was harvested. The obtained fraction was dialyzed against PBS solution [10 mmol/L Na2HPO4; 10 mmol/L NaH2PO4; 0.15 mol/L NaCl; […] (pH 7.4)]. Then, tritium-labeled cholesterol (37 MBq) was dissolved in 95% ethanol, gradually added to the above-mentioned HDL3 fraction with stirring and incubated at 37° C. for 18 hr. [By this operation, tritium-labeled cholesterol was esterified by the action of lecithin acyl transferase (LCAT) present on the HDL3 surface and taken up into HDL3 as tritium-labeled cholesteryl ester ([^3H]CE)]. After incubation, KBr was added, the mixture was adjusted to have a specific density d=1.21 g/mL, subjected to density gradient centrifugation (227,000×g, 4° C., 17 hr) and a fraction of specific density […] was harvested. The obtained fraction was dialyzed against the aforementioned PBS solution to give HDL3 incorporating [^3H]CE ([^3H]CE-HDL3, specific density: 1.125<d<1.21, specific activity: 10,000 dpm/μL), which was used as a donor lipoprotein.
The donor lipoprotein obtained above was added to plasma of healthy subject to prepare a [^3H]CE-HDL3-containing plasma (1,000 dpm/μL). The compound was dissolved in dimethyl formamide. A solution of the compound or a solvent alone (2 μL) and the [^3H]CE-HDL3-containing plasma (100 μL) were added into a microtube, and this was incubated at 37° C. or 4° C. for 4 hr. After ice-cooling, TBS solution [100 μL, 20 mmol/L Tris; 0.15 mol/L NaCl (pH 7.4)] containing 1 mol/L magnesium chloride and 2% dextran sulfate was added to each microtube and the mixture was thoroughly stirred. After keeping at 4° C. for 30 min, the mixture was centrifuged (10,000×g, 4° C., 10 min), and the radioactivity in the obtained supernatant (HDL fraction) was measured with a scintillation counter. […] The concentration of the compound necessary for inhibiting the CETP activity by 50% was calculated as an IC50 value.

Where a name gives a salt, the structure may show the parent alone.

The molecule `CCN(C[C@H]1CC[C@H](C(=O)O)CC1)c1cc2c(cc1CN(Cc1cc(C#N)cc(C(F)(F)F)c1)c1cc(C)no1)CCCC2` [Example 72, trans-4-{[N-(3-{[N′-(3-cyano-5-trifluoromethylbenzyl)-N′-(3-methylisoxazol-5-yl)amino]methyl}-5,6,7,8-tetrahydronaphthalen-2-yl)-N-ethylamino]methyl}cyclohexanecarboxylic acid hydrochloride] had an IC50 of 390 nM.

Regarding `CCN(CC1CCCC1)c1cc2c(cc1CN(Cc1cc(C(F)(F)F)cc(C(F)(F)F)c1)c1nnn(CCO)n1)CCC2` [Example 73, 2-(5-{N-[3,5-bis(trifluoromethyl)benzyl]-N-[6-(N′-cyclopentylmethyl-N′-ethylamino)indan-5-ylmethyl]amino}tetrazol-2-yl)ethanol hydrochloride], the IC50 came to 190 nM.

In turn, `CCN(CCCCC(=O)OC)c1cc2c(cc1CN(Cc1cc(C(F)(F)F)cc(C(F)(F)F)c1)c1ncn(C)n1)CCCC2` [Example 74, methyl 5-[N-(3-{[N′-[3,5-bis(trifluoromethyl)benzyl]-N′-(1-methyl-1H-[1,2,4]triazol-3-yl)amino]methyl}-5,6,7,8-tetrahydronaphthalen-2-yl)-N-ethylamino]pentanoate hydrochloride] showed an IC50 of 400 nM.

In turn, `CCN(CCCCC(=O)OC)c1cc2c(cc1CN(Cc1cc(C#N)cc(C(F)(F)F)c1)c1ncn(C)n1)CCCC2` [Example 75, methyl 5-[N-(3-{[N′-(3-cyano-5-trifluoromethylbenzyl)-N′-(1-methyl-1H-[1,2,4]triazol-3-yl)amino]methyl}-5,6,7,8-tetrahydronaphthalen-2-yl)-N-ethylamino]pentanoate hydrochloride] displayed an IC50 of 410 nM.

Regarding `CCN(CCCCC(=O)O)c1cc2c(cc1CN(Cc1cc(C(F)(F)F)cc(C(F)(F)F)c1)c1ncn(C)n1)CCCC2` [Example 76, 5-[N-(3-{[N′-[3,5-bis(trifluoromethyl)benzyl]-N′-(1-methyl-1H-[1,2,4]triazol-3-yl)amino]methyl}-5,6,7,8-tetrahydronaphthalen-2-yl)-N-ethylamino]pentanoic acid hydrochloride], the IC50 was 290 nM.

Molecule `CCN(CCCCC(=O)O)c1cc2c(cc1CN(Cc1cc(C#N)cc(C(F)(F)F)c1)c1ncn(C)n1)CCCC2` [Example 77, 5-[N-(3-{[N′-(3-cyano-5-trifluoromethylbenzyl)-N′-(1-methyl-1H-[1,2,4]triazol-3-yl)amino]methyl}-5,6,7,8-tetrahydronaphthalen-2-yl)-N-ethylamino]pentanoic acid hydrochloride] showed a half-inhibitory concentration (IC50) of 540 nM. Compared with the last molecule, the IC50 is about 1.9-fold higher.

In turn, `CCN(CCCCC(=O)O)c1cc2c(cc1CN(Cc1cc(C(F)(F)F)cc(C(F)(F)F)c1)c1cc(C)no1)CCCC2` [Example 78, 5-[N-(3-{[N′-[3,5-bis(trifluoromethyl)benzyl]-N′-(3-methylisoxazol-5-yl)amino]methyl}-5,6,7,8-tetrahydronaphthalen-2-yl)-N-ethylamino]pentanoic acid hydrochloride] yielded an IC50 of 320 nM.

`CCN(CCCCC(=O)O)c1cc2c(cc1CN(Cc1cc(C#N)cc(C(F)(F)F)c1)c1cc(C)no1)CCCC2` [Example 79, 5-[N-(3-{[N′-(3-cyano-5-trifluoromethylbenzyl)-N′-(3-methylisoxazol-5-yl)amino]methyl}-5,6,7,8-tetrahydronaphthalen-2-yl)-N-ethylamino]pentanoic acid hydrochloride] showed an IC50 of 890 nM.

Take `CCN(CCCCC(=O)O)c1cc2c(cc1CN(Cc1cc(C(F)(F)F)cc(C(F)(F)F)c1)c1nnn(C)n1)CCCC2` [Example 80, 5-[N-(3-{[N′-[3,5-bis(trifluoromethyl)benzyl]-N′-(2-methyl-2H-tetrazol-5-yl)amino]methyl}-5,6,7,8-tetrahydronaphthalen-2-yl)-N-ethylamino]pentanoic acid hydrochloride]: the half-inhibitory concentration (IC50) stood at 430 nM.

In the case of `CCN(CCCCC(=O)O)c1cc2c(cc1CN(Cc1cc(C#N)cc(C(F)(F)F)c1)c1nnn(C)n1)CCCC2` [Example 81, 5-[N-(3-{[N′-(3-cyano-5-trifluoromethylbenzyl)-N′-(2-methyl-2H-tetrazol-5-yl)amino]methyl}-5,6,7,8-tetrahydronaphthalen-2-yl)-N-ethylamino]pentanoic acid hydrochloride], it took 330 nM to reach half-maximal inhibition (IC50).

`CCN(C[C@H]1CC[C@H](C(=O)O)CC1)c1cc2c(cc1CN(Cc1cc(C(F)(F)F)cc(C(F)(F)F)c1)c1noc(C)n1)CCC2` [Example 82, trans-4-{[N-(6-{[N′-[3,5-bis(trifluoromethyl)benzyl]-N′-(5-methyl-[1,2,4]oxadiazol-3-yl)amino]methyl}indan-5-yl)-N-ethylamino]methyl}cyclohexanecarboxylic acid]: half-maximal inhibition (IC50) was put at 590 nM. This IC50 lies about 1.8-fold higher than the previous one.

Take `CCN(CCCCC(=O)O)c1ccc(C(F)(F)F)cc1CN(Cc1cc(C(F)(F)F)cc(C(F)(F)F)c1)c1nnn(C)n1` [Example 86, 5-[N-(2-{[N′-[3,5-bis(trifluoromethyl)benzyl]-N′-(2-methyl-2H-tetrazol-5-yl)amino]methyl}-4-trifluoromethylphenyl)-N-ethylamino]pentanoic acid hydrochloride]: the IC50 amounted to 941 nM.

As for `CCN(C[C@H]1CC[C@H](C(=O)O)CC1)c1cc2c(cc1CN(Cc1cc(C(F)(F)F)cc(C(F)(F)F)c1)c1nnn(CC)n1)CCC2` [Example 93, trans-4-{[N-(6-{[N′-[3,5-bis(trifluoromethyl)benzyl]-N′-(2-ethyl-2H-tetrazol-5-yl)amino]methyl}indan-5-yl)-N-ethylamino]methyl}cyclohexanecarboxylic acid hydrochloride], the IC50 was 760 nM.

In turn, `CCN(C[C@H]1CC[C@H](C(=O)O)CC1)c1cc2c(cc1CN(Cc1cc(C(F)(F)F)cc(C(F)(F)F)c1)c1nnn(CC)n1)CCCC2` [Example 99, trans-4-{[N-(3-{[N′-[3,5-bis(trifluoromethyl)benzyl]-N′-(2-ethyl-2H-tetrazol-5-yl)amino]methyl}-5,6,7,8-tetrahydronaphthalen-2-yl)-N-ethylamino]methyl}cyclohexanecarboxylic acid hydrochloride] had an IC50 of 530 nM.

In the case of `CCN(CCC(C)(C)CC(=O)O)c1cc2c(cc1CN(Cc1cc(C(F)(F)F)cc(C(F)(F)F)c1)c1ccn(C)n1)CCC2` [Example 102, 5-[N-(6-{[N′-[3,5-bis(trifluoromethyl)benzyl]-N′-(1-methyl-1H-pyrazol-3-yl)amino]methyl}indan-5-yl)-N-ethylamino]-3,3-dimethylpentanoic acid], 590 nM corresponded to half-maximal inhibition (IC50). This IC50 and that of the molecule before are within 1.5-fold of each other.

In turn, `CCN(CCC(C)(C)CC(=O)O)c1cc2c(cc1CN(Cc1cc(C(F)(F)F)cc(C(F)(F)F)c1)c1noc(C)n1)CCC2` [Example 103, 5-[N-(6-{[N′-[3,5-bis(trifluoromethyl)benzyl]-N′-(5-methyl-[1,2,4]oxadiazol-3-yl)amino]methyl}indan-5-yl)-N-ethylamino]-3,3-dimethylpentanoic acid hydrochloride] showed a half-inhibitory concentration (IC50) of 430 nM. This IC50 and that of the molecule before are within 1.5-fold of each other.

In turn, `CCN(CCC(C)(C)CC(=O)O)c1ccc(OC(F)(F)F)cc1CN(Cc1cc(C(F)(F)F)cc(C(F)(F)F)c1)c1nnn(C)n1` [Example 104, 5-[N-(2-{[N′-[3,5-bis(trifluoromethyl)benzyl]-N′-(2-methyl-2H-tetrazol-5-yl)amino]methyl}-4-trifluoromethoxyphenyl)-N-ethylamino]-3,3-dimethylpentanoic acid hydrochloride] displayed an IC50 of 350 nM. The IC50 values of the last two molecules are within 1.5-fold of each other.

For `CCN(CCC(C)(C)CC(=O)O)c1ccc(C(F)(F)F)cc1CN(Cc1cc(C(F)(F)F)cc(C(F)(F)F)c1)c1nnn(C)n1` [Example 105, 5-[N-(2-{[N′-[3,5-bis(trifluoromethyl)benzyl]-N′-(2-methyl-2H-tetrazol-5-yl)amino]methyl}-4-trifluoromethylphenyl)-N-ethylamino]-3,3-dimethylpentanoic acid hydrochloride], the half-inhibitory concentration (IC50) turned out to be 600 nM.
